Here are results for one molecule from patent US10179914B2, “CDC25A inhibitor for the treatment of drug resistant cancer or for the prevention of tumor relapse” (INSERM (INSTITUT NATIONAL DE LA SANTÉ ET DE LA RECHERCHE …, priority 2014, dated 2019).

In experiment [1] the test system is primary AML cells expressing wild-type FLT3. Description: Clonogenic assay, FLT3 wild-type primary AML cells. Format: cell-based, human. The note with it: 100 and 200 nM, day 7. On the procedure: (§1) (c) Primary cells from patients were cultured in semi-solid medium to estimate their clonogenic potential as described in the Methods section, in the presence or the absence of IRC-083864 (100 and 200 nM). 6 FLT3-ITD positive (upper panel) and 4 FLT3-wild type (lower panel) AML primary samples were used for these experiments. Leukemic colonies were scored under an inverted microscope at day 7.
(§2) Patient samples. Patient AML samples were obtained after informed consent in accordance with the Declaration of Helsinki and stored at the HIMIP collection. According to the French law, HIMIP collection has been declared to the Ministry of Higher Education and Research (DC 2008-307 collection 1) and obtained a transfer agreement (AC 2008-129) after approbation by ethical committees (Comité de Protection des Personnes Sud-Ouest et Outremer II and APHP ethical committee). Clinical and biological annotations of the samples have been declared to the CNIL (Comité National Informatique et Libertés i.e. Data processing and Liberties National Committee). Frozen cells were thawed in IMDM medium with 20% FBS and immediately processed for treatment. All patients were diagnosed at the Department of Hematology of Toulouse University Hospital.
(§3) Clonogenic assay. […] Leukemic colonies were then scored under an inverted microscope.

The test system of experiment [2] is MOLM-14 TKD cells (FLT3-ITD-D835Y). Description: Cell proliferation, MOLM-14 expressing FLT3-ITD/TKD (D835Y). Format: cell-based, human. The note with it: 200 nM. An excerpt: Cells were harvested each day and counted after trypan blue staining. The graphs represent three independent experiments.
We consequently developed a cellular model consisting of MOLM-14 cells transfected with a FLT3-ITD mutant with a D835Y amino-acid substitution within the FLT3 kinase domain (FLT3-ITD-D835Y; FLT3-ITD/TKD).

The test system of experiment [3] is human cell lines (tumor cell proliferation). The note with it: compared with BN82685; cited from earlier work.
The subject of the next experiment is MOLM-14 cells. Description: MOLM-14 xenograft in NSG mice, differentiation in vivo. Conditions: 5 mg/kg/week i.p., two weeks. The method, then:
(a) NSG mice were injected with 2 millions MOLM-14 cells, and treated with IRC-083864 at 5 mg/kg/week i.p. (n=4) or with vehicle buffer (n=4) as described in the Methods section. Bone marrow cells were extracted after dissection after two weeks and the expression of CD14 and CD15 on human blasts was followed by flow cytometry analysis. (b) Quantification (mean±SEM, n=4) of CD14 and CD15 expression in response to IRC-083864. (c) Morphological analyses of human cells used in (a). Original magnification ×100.
In vivo experiments. Animals were used in accordance to a protocol reviewed and approved by the Institutional Animal Care and User Ethical Committee of the UMS006 and Region Midi-Pyrénées (Approval#13-U1037-JES08). NOD/LtSz-scid IL-2Rγchainnull (NSG) mice (Sanchez P V et al) were produced at the Genotoul Anexplo platform in Toulouse (France) using breeders obtained from The Charles River Laboratory. Mice were housed in sterile conditions using HEPA filtered micro-isolators and fed with irradiated food and acidified water. Transplanted mice were treated with antibiotics (enrofloxacin) for the duration of the experiment. […] Adult mice (6 or 7-week old) were treated with 20 mg/kg Busulfan (Busilvex, Pierre Fabre, France) by i.p. administration 24 hours before injection of leukemic cells. Cultured MOLM-14 cells were washed in PBS and cleared of aggregates and debris using a 0.2 mm cell filter, and suspended in PBS at a final concentration of 2 million cells per 200 μL of PBS per mouse for i.v. injection. IRC-083864 (5 mg/kg/week) was then administrated to leukemic mice by i.p. injection. Daily monitoring of mice for symptoms of disease (ruffled coat, hunched back, weakness and reduced motility) determined the time of animal euthanasia. Cell differentiation was monitored after two IRC-083864 injections: mice were humanely killed in accordance with IACUC protocols. Bone marrow (mixed from tibias and femurs) were dissected, flushed in PBS and made into single cell suspensions for analysis by flow cytometry and cytospins.

Experiment [4] concerns FLT3-wild type primary AML samples. Description: Differentiation of FLT3 wild-type primary AML samples. Format: cell-based, human. The note with it: same conditions.
Text: as §2
Co-cultures. […]
Flow cytometry. Apoptotic cells were detected with Annexin V-FITC detection kit from BD Pharmingen (San Diego, Calif., USA) according to the manufacturer instructions. […] Data were collected on a LSRII or a LSRFortessa cytometer (BD Biosciences), and analyzed with FlowJo software. […]

Experiment [5] relates to FLT3-ITD positive primary AML cells. Description: Clonogenic assay, FLT3-ITD positive primary AML cells. In kind it is cell-based, human. The note with it: 100 and 200 nM, day 7, semi-solid 5637 conditioned medium. On the procedure: as §1, §2, §3

In the case of `Cc1nc2c(s1)C(=O)C=C(NCCCN(C)CCCNC1=CC(=O)c3nc(-c4cc(F)ccc4F)oc3C1=O)C2=O` [IRC-083864], in experiment [1], the “clonogenic potential of primary cells expressing wild-type FLT3” value was “not sensitive”. Moreover, in experiment [2], the “proliferation and death of ITD/TKD cells” value is “induced cell proliferation arrest and cell death”. In addition, the “potency of tumor cell proliferation inhibition” value in experiment [3] was “equivalent to that of BN82685”. In addition, in the experiment with MOLM-14 cells, the “CD11b expression on human myeloid cells in bone marrow” value was “no change”, the “CD14 expression on MOLM-14 cells from bone marrow” value is reported as “increased expression”, the “CD15 expression on MOLM-14 cells from bone marrow” value is recorded as “unchanged expression” and the “morphology of cytospun human bone marrow cells” value is given as “monocytic-like nuclear changes”. Moreover, the “differentiation of FLT3-wild type samples” value in experiment [4] is recorded as “no evidence of differentiation”. In addition, the “clonogenic potential of FLT3-ITD positive primary cells” value in experiment [5] is “significantly reduced”.
